The text below walks through data of patent US12559487B2, “Crosslinked optically active secondary amine derivative” (Sumitomo Pharma Co., Ltd., priority 2019, dated 2026).

Some results are limits rather than exact numbers.

Usually IC50 stands for the point on the concentration scale where inhibition reaches its midpoint. Higher therefore signals a need for much substance.

Series [1] deals with MV4; 11 cells. Kind of series: Test 1: Test for evaluating the inhibition of cell proliferation. Format: cell-based. The conditions noted are these: cultured for 7 days, PrestoBlue cell viability. The protocol: MV4; 11 cells were obtained from American Type Culture Collection (ATCC). The cells were cultured at 37° C. in the presence of 5% CO2 in RPMI 1640 medium containing 10% fetal bovine serum and 1% penicillin/streptomycin.
The cells were plated to a 96-well plate in 2000 cells/well, each test compound was added thereto to adjust the final concentration of DMSO to 0.1% of DMSO, and the cells were cultured for 7 days. After the cultivation, the cell viability was calculated with PrestoBlue™ Cell Viability Reagent (Invitrogen, A13261).

The target of series [2] is hERG (human Ether-a-go-go Related Gene) (Homo sapiens (Human), UniProt Q12809).
Sequence of hERG (human Ether-a-go-go Related Gene) (Q12809 whole entry): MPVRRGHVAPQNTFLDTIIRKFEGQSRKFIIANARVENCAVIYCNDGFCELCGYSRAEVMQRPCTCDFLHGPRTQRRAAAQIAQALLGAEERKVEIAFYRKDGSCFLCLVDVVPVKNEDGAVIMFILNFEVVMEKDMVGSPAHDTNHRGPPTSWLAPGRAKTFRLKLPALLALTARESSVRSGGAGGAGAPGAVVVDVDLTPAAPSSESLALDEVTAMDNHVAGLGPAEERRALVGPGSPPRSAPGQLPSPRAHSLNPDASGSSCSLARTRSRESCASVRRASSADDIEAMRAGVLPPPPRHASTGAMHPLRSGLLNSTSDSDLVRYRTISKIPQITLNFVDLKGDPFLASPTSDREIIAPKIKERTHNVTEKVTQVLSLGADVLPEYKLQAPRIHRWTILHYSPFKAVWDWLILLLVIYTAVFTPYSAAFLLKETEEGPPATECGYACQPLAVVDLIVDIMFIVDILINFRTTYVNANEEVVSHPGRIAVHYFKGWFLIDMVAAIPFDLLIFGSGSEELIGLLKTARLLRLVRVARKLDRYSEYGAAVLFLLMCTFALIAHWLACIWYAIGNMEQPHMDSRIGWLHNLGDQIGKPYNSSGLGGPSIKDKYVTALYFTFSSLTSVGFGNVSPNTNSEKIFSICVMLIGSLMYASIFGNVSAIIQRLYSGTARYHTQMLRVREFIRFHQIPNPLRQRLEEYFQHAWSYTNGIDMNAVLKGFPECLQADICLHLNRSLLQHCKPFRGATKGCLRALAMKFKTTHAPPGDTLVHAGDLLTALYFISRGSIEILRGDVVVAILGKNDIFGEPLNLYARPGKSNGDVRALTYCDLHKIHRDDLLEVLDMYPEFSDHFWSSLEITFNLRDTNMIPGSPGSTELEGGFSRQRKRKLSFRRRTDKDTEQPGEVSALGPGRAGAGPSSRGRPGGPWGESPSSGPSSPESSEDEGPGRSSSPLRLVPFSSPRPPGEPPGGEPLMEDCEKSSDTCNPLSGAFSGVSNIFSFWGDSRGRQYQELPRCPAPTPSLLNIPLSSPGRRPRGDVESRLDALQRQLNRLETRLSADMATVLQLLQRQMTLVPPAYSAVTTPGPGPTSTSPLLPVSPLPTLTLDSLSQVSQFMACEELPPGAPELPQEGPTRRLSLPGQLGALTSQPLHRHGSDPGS

In turn, “2-[3-({1-[(3S)-2-azabicyclo[2.2.2]octane-3-carbonyl]azetidin-3-yl}methyl)-1H-pyrrolo[2,3-c]pyridin-1-yl]-5-fluoro-N-methyl-N-(propan-2-yl)benzamide [Example 26]” registered an IC50 in series [1] of 1700 nM. Also, in series [2], the “hERG/MV4; 11” value is listed as above 59.

Turning to “2-(3-{1-[(3S)-2-azabicyclo[2.2.2]octane-3-carbonyl]pyrrolidin-3-yl}-1H-pyrrolo[2,3-c]pyridin-1-yl)-5-fluoro-N-methyl-N-(propan-2-yl)benzamide [Example 7]”, the IC50 in series [1] was 52 nM. In addition, the “hERG/MV4; 11” value in series [2] is 775.

Regarding “5-fluoro-2-(3-{1-[(1S,3S,4R)-5-methylidene-2-azabicyclo[2.2.2]octane-3-carbonyl]piperidin-4-yl}-1H-pyrrolo[2,3-c]pyridin-1-yl)-N,N-di(propan-2-yl)benzamide [Example 5]”, 35 nM corresponded to half-maximal inhibition in series [1] (IC50). Further, in series [2], the “hERG/MV4; 11” value was 589.

The substance “2-[3-({1-[(3S)-2-azabicyclo[2.2.2]octane-3-carbonyl]pyrrolidin-3-yl}methyl)-1H-pyrrolo[2,3-c]pyridin-1-yl]-5-fluoro-N-methyl-N-(propan-2-yl)benzamide [Example 25]” gave an IC50 in series [1] of 29 nM. For the same substance, the “hERG/MV4; 11” value in series [2] stood at 334.

For the substance “2-(3-{1-[(3S)-2-azabicyclo[2.2.2]octane-3-carbonyl]azepan-4-yl}-1H-pyrrolo[2,3-c]pyridin-1-yl)-5-fluoro-N-methyl-N-(propan-2-yl)benzamide [Example 11]”, in series [1], the IC50 is below 30 nM. Moreover, the “hERG/MV4; 11” value in series [2] was above 1287.
